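Results reflect a 48-hour exposure of cells in 96-well plates to compound at five concentrations. TGI: concentration producing complete growth inhibition.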
Columns and labels:
Experiment in all cases: DTP human tumour cell line panel, 48 h
786-0 renal = tested on: 786-0 renal
A498 renal = tested on: A498 renal
A549 NSCLC = tested on: A549 NSCLC
ACHN renal = tested on: ACHN renal
CAKI-1 renal = tested on: CAKI-1 renal
COLO 205 colon = tested on: COLO 205 colon
DU-145 prostate = tested on: DU-145 prostate
EKVX NSCLC = tested on: EKVX NSCLC
HCC-2998 colon = tested on: HCC-2998 colon
HCT-116 colon = tested on: HCT-116 colon
HCT-15 colon = tested on: HCT-15 colon
HL-60(TB) leukemia = tested on: HL-60(TB) leukemia
HOP-62 NSCLC = tested on: HOP-62 NSCLC
HOP-92 NSCLC = tested on: HOP-92 NSCLC
HS 578T breast = tested on: HS 578T breast
HT29 colon = tested on: HT29 colon
IGROV1 ovarian = tested on: IGROV1 ovarian
K-562 leukemia = tested on: K-562 leukemia
KM12 colon = tested on: KM12 colon
LOX IMVI melanoma = tested on: LOX IMVI melanoma
M14 melanoma = tested on: M14 melanoma
MALME-3M melanoma = tested on: MALME-3M melanoma
MCF7 breast = tested on: MCF7 breast
MDA-MB-435 = tested on: MDA-MB-435
MDA-N = tested on: MDA-N
MOLT-4 leukemia = tested on: MOLT-4 leukemia
NCI-H23 lung = tested on: NCI-H23 lung
NCI-H460 lung = tested on: NCI-H460 lung
NCI-H522 lung = tested on: NCI-H522 lung
NCI/ADR-RES ovarian = tested on: NCI/ADR-RES ovarian
OVCAR-3 ovarian = tested on: OVCAR-3 ovarian
OVCAR-4 ovarian = tested on: OVCAR-4 ovarian
OVCAR-5 ovarian = tested on: OVCAR-5 ovarian
OVCAR-8 ovarian = tested on: OVCAR-8 ovarian
PC-3 prostate = tested on: PC-3 prostate
RPMI-8226 leukemia = tested on: RPMI-8226 leukemia
RXF 393 renal = tested on: RXF 393 renal
SF-268 CNS = tested on: SF-268 CNS
SF-295 CNS = tested on: SF-295 CNS
SF-539 CNS = tested on: SF-539 CNS
SK-MEL-2 melanoma = tested on: SK-MEL-2 melanoma
SK-MEL-28 melanoma = tested on: SK-MEL-28 melanoma
SK-MEL-5 melanoma = tested on: SK-MEL-5 melanoma
SK-OV-3 ovarian = tested on: SK-OV-3 ovarian
SNB-19 CNS = tested on: SNB-19 CNS
SNB-75 CNS = tested on: SNB-75 CNS
SR leukemia = tested on: SR leukemia
SW-620 colon = tested on: SW-620 colon
T-47D breast = tested on: T-47D breast
TK-10 renal = tested on: TK-10 renal
U251 CNS = tested on: U251 CNS
UACC-257 melanoma = tested on: UACC-257 melanoma
UACC-62 melanoma = tested on: UACC-62 melanoma
UO-31 renal = tested on: UO-31 renal
CCRF-CEM leukemia = tested on: CCRF-CEM leukemia
MDA-MB-231 breast = tested on: MDA-MB-231 breast
NCI-H226 lung = tested on: NCI-H226 lung
SN12C renal = tested on: SN12C renal
BT-549 breast = tested on: BT-549 breast

## CCN1CCN(c2nc3ccccc3nc2C(=O)c2ccc(OC)cc2)CC1
786-0 renal
  TGI: 64.8 µM
A498 renal
  TGI: > 100 µM
A549 NSCLC
  TGI: > 100 µM
ACHN renal
  TGI: > 100 µM
CAKI-1 renal
  TGI: > 100 µM
COLO 205 colon
  TGI: > 100 µM
DU-145 prostate
  TGI: > 100 µM
EKVX NSCLC
  TGI: > 100 µM
HCC-2998 colon
  TGI: > 100 µM
HCT-116 colon
  TGI: 36.7 µM
HCT-15 colon
  TGI: > 100 µM
HL-60(TB) leukemia
  TGI: > 100 µM
HOP-62 NSCLC
  TGI: 55.5 µM
HOP-92 NSCLC
  TGI: > 100 µM
HS 578T breast
  TGI: > 100 µM
HT29 colon
  TGI: > 100 µM
IGROV1 ovarian
  TGI: > 100 µM
K-562 leukemia
  TGI: > 100 µM
KM12 colon
  TGI: > 100 µM
LOX IMVI melanoma
  TGI: > 100 µM
M14 melanoma
  TGI: 37.3 µM
MALME-3M melanoma
  TGI: 62.2 µM
MCF7 breast
  TGI: 58.8 µM
MDA-MB-435
  TGI: > 100 µM
MDA-N
  TGI: > 100 µM
MOLT-4 leukemia
  TGI: > 100 µM
NCI-H23 lung
  TGI: > 100 µM
NCI-H460 lung
  TGI: > 100 µM
NCI-H522 lung
  TGI: > 100 µM
NCI/ADR-RES ovarian
  TGI: > 100 µM
OVCAR-3 ovarian
  TGI: > 100 µM
OVCAR-4 ovarian
  TGI: > 100 µM
OVCAR-5 ovarian
  TGI: > 100 µM
OVCAR-8 ovarian
  TGI: > 100 µM
PC-3 prostate
  TGI: > 100 µM
RPMI-8226 leukemia
  TGI: 43.7 µM
RXF 393 renal
  TGI: 43.5 µM
SF-268 CNS
  TGI: > 100 µM
SF-295 CNS
  TGI: > 100 µM
SF-539 CNS
  TGI: > 100 µM
SK-MEL-2 melanoma
  TGI: > 100 µM
SK-MEL-28 melanoma
  TGI: > 100 µM
SK-MEL-5 melanoma
  TGI: > 100 µM
SK-OV-3 ovarian
  TGI: > 100 µM
SNB-19 CNS
  TGI: > 100 µM
SNB-75 CNS
  TGI: > 100 µM
SR leukemia
  TGI: 93.4 µM
SW-620 colon
  TGI: > 100 µM
T-47D breast
  TGI: > 100 µM
TK-10 renal
  TGI: 70.4 µM
U251 CNS
  TGI: > 100 µM
UACC-257 melanoma
  TGI: 35.3 µM
UACC-62 melanoma
  TGI: 45 µM
UO-31 renal
  TGI: > 100 µM

## CCOC(=O)[C@@H]1OC(c2ccccc2)O[C@H]1C(=O)OCC
786-0 renal
  TGI: > 100 µM
A498 renal
  TGI: > 100 µM
A549 NSCLC
  TGI: > 100 µM
ACHN renal
  TGI: > 100 µM
CCRF-CEM leukemia
  TGI: > 100 µM
COLO 205 colon
  TGI: > 100 µM
DU-145 prostate
  TGI: > 100 µM
EKVX NSCLC
  TGI: > 100 µM
HCT-116 colon
  TGI: > 100 µM
HCT-15 colon
  TGI: > 100 µM
HOP-62 NSCLC
  TGI: > 100 µM
HOP-92 NSCLC
  TGI: > 100 µM
HS 578T breast
  TGI: > 100 µM
HT29 colon
  TGI: > 100 µM
IGROV1 ovarian
  TGI: > 100 µM
K-562 leukemia
  TGI: > 100 µM
KM12 colon
  TGI: > 100 µM
LOX IMVI melanoma
  TGI: > 100 µM
M14 melanoma
  TGI: > 100 µM
MALME-3M melanoma
  TGI: > 100 µM
MCF7 breast
  TGI: > 100 µM
MDA-MB-231 breast
  TGI: > 100 µM
MDA-MB-435
  TGI: > 100 µM
MDA-N
  TGI: > 100 µM
MOLT-4 leukemia
  TGI: > 100 µM
NCI-H226 lung
  TGI: > 100 µM
NCI-H23 lung
  TGI: > 100 µM
NCI/ADR-RES ovarian
  TGI: > 100 µM
OVCAR-3 ovarian
  TGI: > 100 µM
OVCAR-4 ovarian
  TGI: > 100 µM
OVCAR-5 ovarian
  TGI: > 100 µM
OVCAR-8 ovarian
  TGI: > 100 µM
PC-3 prostate
  TGI: > 100 µM
RPMI-8226 leukemia
  TGI: > 100 µM
SF-268 CNS
  TGI: > 100 µM
SF-295 CNS
  TGI: > 100 µM
SK-MEL-2 melanoma
  TGI: > 100 µM
SK-MEL-28 melanoma
  TGI: > 100 µM
SK-MEL-5 melanoma
  TGI: > 100 µM
SK-OV-3 ovarian
  TGI: > 100 µM
SN12C renal
  TGI: > 100 µM
SNB-19 CNS
  TGI: > 100 µM
SNB-75 CNS
  TGI: > 100 µM
SR leukemia
  TGI: > 100 µM
SW-620 colon
  TGI: > 100 µM
TK-10 renal
  TGI: > 100 µM
U251 CNS
  TGI: > 100 µM
UACC-257 melanoma
  TGI: > 100 µM
UACC-62 melanoma
  TGI: > 100 µM
UO-31 renal
  TGI: > 100 µM

## Oc1cccc(-c2ccc3c4c2O[C@H]2c5[nH]c6ccccc6c5C[C@@]5(O)[C@@H](C3)N(CC3CC3)CC[C@]425)c1
786-0 renal
  TGI: 2.97 µM
A549 NSCLC
  TGI: 3.22 µM
ACHN renal
  TGI: 3.67 µM
BT-549 breast
  TGI: 23 µM
CAKI-1 renal
  TGI: 3.41 µM
CCRF-CEM leukemia
  TGI: 10.4 µM
COLO 205 colon
  TGI: 5.92 µM
DU-145 prostate
  TGI: 3.36 µM
EKVX NSCLC
  TGI: 29.7 µM
HCT-116 colon
  TGI: 3.22 µM
HCT-15 colon
  TGI: 3.03 µM
HL-60(TB) leukemia
  TGI: 4.03 µM
HOP-92 NSCLC
  TGI: 4.42 µM
HS 578T breast
  TGI: 3.55 µM
HT29 colon
  TGI: 3.09 µM
IGROV1 ovarian
  TGI: 3.12 µM
KM12 colon
  TGI: 3.5 µM
LOX IMVI melanoma
  TGI: 3.19 µM
M14 melanoma
  TGI: 3.07 µM
MALME-3M melanoma
  TGI: 3.38 µM
MDA-MB-231 breast
  TGI: 4.03 µM
MDA-MB-435
  TGI: 3.1 µM
MDA-N
  TGI: 3.05 µM
NCI-H226 lung
  TGI: 28.9 µM
NCI-H23 lung
  TGI: 5.17 µM
NCI/ADR-RES ovarian
  TGI: 4.69 µM
OVCAR-3 ovarian
  TGI: 3.42 µM
OVCAR-4 ovarian
  TGI: 2.96 µM
OVCAR-5 ovarian
  TGI: 4.3 µM
OVCAR-8 ovarian
  TGI: 3.23 µM
PC-3 prostate
  TGI: 3.44 µM
RXF 393 renal
  TGI: 2.63 µM
SF-268 CNS
  TGI: 3.06 µM
SF-295 CNS
  TGI: 3.21 µM
SF-539 CNS
  TGI: 3.14 µM
SK-MEL-2 melanoma
  TGI: 5.13 µM
SK-MEL-5 melanoma
  TGI: 10.3 µM
SN12C renal
  TGI: 3.04 µM
SNB-19 CNS
  TGI: 3 µM
SW-620 colon
  TGI: 6.15 µM
TK-10 renal
  TGI: 4.34 µM
UO-31 renal
  TGI: 3.03 µM

## Cc1nc2c(O)cc3c4c(=O)n(C)c(=O)n(C)c4n(Cc4ccccc4)c3c2nc1C
786-0 renal
  TGI: 32.8 µM
A498 renal
  TGI: 81.7 µM
A549 NSCLC
  TGI: 36.2 µM
ACHN renal
  TGI: 31.7 µM
CCRF-CEM leukemia
  TGI: 50 µM
COLO 205 colon
  TGI: 28 µM
DU-145 prostate
  TGI: > 100 µM
EKVX NSCLC
  TGI: 50.2 µM
HCC-2998 colon
  TGI: 40.3 µM
HCT-116 colon
  TGI: 52.1 µM
HCT-15 colon
  TGI: 34.3 µM
HL-60(TB) leukemia
  TGI: 53.8 µM
HOP-62 NSCLC
  TGI: 33.6 µM
HOP-92 NSCLC
  TGI: 27.2 µM
HS 578T breast
  TGI: 80.1 µM
HT29 colon
  TGI: 32.2 µM
K-562 leukemia
  TGI: > 100 µM
KM12 colon
  TGI: 54 µM
LOX IMVI melanoma
  TGI: 37.4 µM
M14 melanoma
  TGI: 36.6 µM
MALME-3M melanoma
  TGI: 38.8 µM
MCF7 breast
  TGI: 32.2 µM
MDA-MB-231 breast
  TGI: 38.2 µM
MDA-MB-435
  TGI: 33.9 µM
MDA-N
  TGI: 34.2 µM
MOLT-4 leukemia
  TGI: 70.1 µM
NCI-H226 lung
  TGI: 55.3 µM
NCI-H23 lung
  TGI: 38 µM
NCI-H460 lung
  TGI: > 100 µM
NCI/ADR-RES ovarian
  TGI: 74.9 µM
OVCAR-4 ovarian
  TGI: 23.7 µM
OVCAR-5 ovarian
  TGI: 43.6 µM
OVCAR-8 ovarian
  TGI: 33.1 µM
PC-3 prostate
  TGI: 31.2 µM
RPMI-8226 leukemia
  TGI: 51.8 µM
RXF 393 renal
  TGI: 26.7 µM
SF-268 CNS
  TGI: 32.9 µM
SF-295 CNS
  TGI: > 100 µM
SF-539 CNS
  TGI: 30 µM
SK-MEL-2 melanoma
  TGI: 31.9 µM
SK-MEL-28 melanoma
  TGI: 28 µM
SK-MEL-5 melanoma
  TGI: 32.8 µM
SK-OV-3 ovarian
  TGI: 32.2 µM
SN12C renal
  TGI: 38.1 µM
SNB-19 CNS
  TGI: 34.4 µM
SR leukemia
  TGI: 57.6 µM
SW-620 colon
  TGI: 44.2 µM
TK-10 renal
  TGI: 38.4 µM
U251 CNS
  TGI: 35.4 µM
UACC-257 melanoma
  TGI: 33.1 µM
UACC-62 melanoma
  TGI: 34 µM
UO-31 renal
  TGI: 31.4 µM

From PubChem BioAssay (NCI)
